The record followed here is patent US12521395B2, “Gem-disubstituted heterocyclic compounds and their use as IDH inhibitors” (NERVIANO MEDICAL SCIENCES S.R.L., priority 2019, dated 2026).

Usually IC50 stands for the concentration that inhibits the measured activity by half.

One test has as its target IDH1^R132C (Homo sapiens, UniProt O75874, R132C). Kind of test: NADPH depletion assay (diaphorase/resazurin), IDH1 R132C. The test is classed as biochemical. The following applies: IDH1^R132C 2 nM, alpha-ketoglutarate 0.14 mM; read-out: IDH1^R132C IC50. The procedure:
IDH mutated enzyme activity converting alpha-ketoglutarate to 2-hydroxyglutaric acid is measured using a NADPH depletion assay. In the assay the remaining cofactor is measured at the end of the reaction with the addition of a catalytic excess of diaphorase and resazurin, to generate a fluorescent signal in proportion to the amount of NADPH remaining. IDH1 WT enzyme as well as mutated isoforms IDH1^R132H, IDH1^R132C, and IDH2^R172K enzymes are commercially available proteins (see e.g. Sino Biological, Abcam, Active Motif or Creative BioMart).
IDH1^R132H homodimer enzyme are diluted to 8 nM, in 10 μL of Assay Buffer (150 mM NaCl, 50 mM Tris-HCl pH 7.6, 10 mM MgCl2, 0.001% Triton X-100, 4 mM β-mercaptoethanol); 0.2 μL of test compound, previously serially diluted 1 to 3, >10 experimental points from 1 mM in DMSO, is added and the mixture is incubated for 15 minutes at room temperature. The reaction is started with the addition of 10 μL of Substrate Mix (12 μM NADPH, 3.4 mM alpha-ketoglutarate in Assay Buffer) and the mixture is incubated for 60 minutes at room temperature. The reaction is terminated with the addition of 5 μl of Detection Buffer (100 μg/mL diaphorase, 30 μM resazurin, in IX Assay Buffer), and is incubated for 15 minutes before reading on a ViewLux as platereader at Ex544/Em590.
Compounds are assayed for their activity against IDH1^R132C following the same assay as above with the following modifications: IDH1^R132C and alpha-ketoglutarate final concentrations in the Assay Buffer is 2 nM and 0.14 mM, respectively.
(The colour change of resazurin is a common sign of viable cells or microbes.)

In test [1] the test system is cell lines HT-1080 (IDH1^R132C). Kind of test: Cellular assay: inhibition of 2HG production, LC-MS/MS. It is filed as cell-based. As to conditions: Homo sapiens, 72 hr incubation, 2-HG in cell culture media, read-out: HT1080 2-HG IC50. The procedure: Cell lines HT-1080 (commercially available) are maintained in E-MEM 10% FCS and incubated at 37° C. in a humidified 5% CO2 atmosphere.
Cells are seeded into 96 well black flat bottom plates at a density of 500 cells/well in 100 μL complete medium. After 24 hr the medium is replaced with 200 μL of fresh medium and compounds (dissolved into DMSO) are administrated to the cells using D300E Digital Dispenser (Tecan).
After 72 hr of incubation 100 μL from each well are collected and used for 2HG (R(−)-2-hydroxyglutarate) quantification. Levels of 2-HG in cell culture media are determined by LC-MS/MS. Cell supernatants (100 μL/well) are treated with 1 M aqueous trichloroacetic acid containing 130 μM of the internal standard 2-HG-d3 (20 μL/well) in a 96-well plate. The plates are sealed, mildly vortexed for 60 minutes, centrifuged at 4,000 RPM for 15 minutes, placed in a refrigerated autosampler taking care not to shake them, and aliquots of the upper part of the samples are directly injected in the chromatographic system. Calibration standards are obtained by ten folds dilution of aqueous 2-HG stock solutions with blank cell culture medium and denatured exactly in the same way as described above for samples. Samples and standards are assayed for 2-HG by reversed phase chromatography on a C18 column eluted with aqueous 0.15% formic acid and briefly washed with 90% methanol at the end of the run. 2-HG is determined by negative ion electrospray ionization with the internal standard method on a triple quadrupole mass spectrometer monitoring the MRM transitions 147>129 (2-HG) and 150>132 (2-HG-d3).
2-HG inhibition was calculated by comparing treated versus control data using Assay Explore (Symyx) software, with IC50 determined using a sigmoidal fitting algorithm.

Chain of IDH1^R132C (O75874 whole entry R132C, canonical isoform): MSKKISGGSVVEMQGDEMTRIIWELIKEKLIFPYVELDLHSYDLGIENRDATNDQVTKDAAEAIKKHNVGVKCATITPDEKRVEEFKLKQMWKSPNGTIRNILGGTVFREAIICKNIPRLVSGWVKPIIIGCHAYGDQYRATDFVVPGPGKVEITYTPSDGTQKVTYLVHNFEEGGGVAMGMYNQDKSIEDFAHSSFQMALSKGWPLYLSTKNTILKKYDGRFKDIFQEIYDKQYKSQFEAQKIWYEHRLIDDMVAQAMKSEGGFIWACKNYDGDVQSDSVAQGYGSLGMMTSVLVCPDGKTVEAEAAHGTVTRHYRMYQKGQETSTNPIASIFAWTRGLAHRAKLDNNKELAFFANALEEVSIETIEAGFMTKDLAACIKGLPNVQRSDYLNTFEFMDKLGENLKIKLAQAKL

Take `C=CC(=O)N1CCN(C2(c3ccc([C@H](C)Nc4ncc5ccc(=O)n(C(C)C)c5n4)cc3)CCN(C(C)=O)CC2)CC1` [cpd 6, 2-{[(1S)-1-{4-[1-acetyl-4-(4-acryloylpiperazin-1-yl)piperidin-4-yl]phenyl}ethyl]amino}-8-(propan-2-yl)pyrido[2,3-d]pyrimidin-7(8H)-one]: the figures for the IC50 (on IDH1^R132C; in test [1]) were 0.0059 µM and 0.0052 µM, respectively.
In the same order, the values of `C=CC(=O)N1CCN(C2(c3ccc([C@H](C)Nc4cc5c(cn4)COC(=O)N5CC)cc3)CCOCC2)CC1` [cpd 44, 7-{[(1S)-1-{4-[4-(4-acryloylpiperazin-1-yl)tetrahydro-2H-pyran-4-yl]phenyl}ethyl]amino}-1-ethyl-1,4-dihydro-2H-pyrido[4,3-d][1,3]oxazin-2-one] are 0.009 µM and 0.004 µM.
Taken in the same sequence, the figures for `C=C(CN1CCN(C2(c3ccc([C@H](C)Nc4ncc5ccc(=O)n(C(C)C)c5n4)cc3)CCOCC2)CC1)C(=O)O` [cpd 7, 2-{[4-(4-{4-[(1S)-1-{[7-oxo-8-(propan-2-yl)-7,8-dihydropyrido[2,3-d]pyrimidin-2-yl]amino}ethyl]phenyl}tetrahydro-2H-pyran-4-yl)piperazin-1-yl]methyl}prop-2-enoic acid] were 0.0402 µM and 0.562 µM.
In the same order, the values of `C=CC(=O)N1CCN(C2(c3ccc([C@H](C)Nc4ncc5ccc(=O)n(CC)c5n4)cc3)CCOCC2)CC1` [cpd 14, 2-{[(1S)-1-{4-[4-(4-acryloylpiperazin-1-yl)tetrahydro-2H-pyran-4-yl]phenyl}ethyl]amino}-8-ethylpyrido[2,3-d]pyrimidin-7(8H)-one] are 0.0044 µM and 0.0048 µM.
Consider `C=CC(=O)N1CCN(C2(c3ccc(C4(Nc5ncc6ccc(=O)n(C(C)C)c6n5)CC4)cc3)CCCC2)CC1` [cpd 49, 2-[(1-{4-[1-(4-acryloylpiperazin-1-yl)cyclopentyl]phenyl}cyclopropyl)amino]-8-(propan-2-yl)pyrido[2,3-d]pyrimidin-7(8H)-one], for which the figures for the IC50 (on IDH1^R132C; in test [1]) were 0.017 µM and 0.003 µM, respectively.
For `C=CC(=O)N1CCN(C2(c3ccc([C@H](C)Nc4ncc5ccc(=O)n(C(C)C)c5n4)cc3)CCCC2)CC1` [cpd 16, 2-{[(1S)-1-{4-[1-(4-acryloylpiperazin-1-yl)cyclopentyl]phenyl}ethyl]amino}-8-(propan-2-yl)pyrido[2,3-d]pyrimidin-7(8H)-one], the figures for the IC50 (on IDH1^R132C; in test [1]) were 0.0013 µM and 0.0003 µM, respectively.
As for `CC(C)n1c(=O)ccc2cnc(N[C@@H](C)c3ccc(C4(N(C)C5CN(C(=O)C(F)Cl)C5)CCC(F)(F)CC4)cc3)nc21` (stereo partly drawn) [cpd 53, 2-{[(1S)-1-(4-{1-[{1-[chloro(fluoro)acetyl]azetidin-3-yl}(methyl)amino]-4,4-difluorocyclohexyl}phenyl)ethyl]amino}-8-(propan-2-yl)pyrido[2,3-d]pyrimidin-7(8H)-one], the IC50 came to 0.028 µM on IDH1^R132C and 0.04 µM in test [1].
As for `C=CC(=O)N1CCN(C(C)(C)c2ccc([C@H](C)Nc3ncc4ccc(=O)n(C(C)C)c4n3)cc2)CC1` [cpd 2, 2-{[(1S)-1-{4-[2-(4-acryloylpiperazin-1-yl)propan-2-yl]phenyl}ethyl]amino}-8-(propan-2-yl)pyrido[2,3-d]pyrimidin-7(8H)-one], the IC50 at IDH1^R132C turned out to be 0.012 µM; in test [1], 0.0049 µM.
On to `C=CC(=O)N1CCN(C2(c3ccc([C@H](C)Nc4ncc5ccc(=O)n(C(C)C)c5n4)cc3)COC2)CC1` [cpd 3, 2-{[(1S)-1-{4-[3-(4-acryloylpiperazin-1-yl)oxetan-3-yl]phenyl}ethyl]amino}-8-(propan-2-yl)pyrido[2,3-d]pyrimidin-7(8H)-one], for which the values for the IC50 (on IDH1^R132C; in test [1]) were 0.0272 µM and 0.013 µM, respectively.
In the case of `C=CC(=O)N1CC(N(C)C2(c3ccc([C@H](C)Nc4cc5c(ccc(=O)n5C(C)C)cn4)cc3)CCOCC2)C1` [cpd 48, 7-{[(1S)-1-(4-{4-[(1-acryloylazetidin-3-yl)(methyl)amino]tetrahydro-2H-pyran-4-yl}phenyl)ethyl]amino}-1-(propan-2-yl)-1,6-naphthyridin-2(1H)-one], the IC50 was 0.047 µM on IDH1^R132C and 0.065 µM in test [1].
Taken in the same sequence, the figures for `CC(C)n1c(=O)ccc2cnc(N[C@@H](C)c3ccc(C4(N5CCN(C(=O)CCCl)CC5)CCOCC4)cc3)nc21` [cpd 23, 2-{[(1S)-1-(4-{4-[4-(3-chloropropanoyl)piperazin-1-yl]tetrahydro-2H-pyran-4-yl}phenyl)ethyl]amino}-8-(propan-2-yl) pyrido[2,3-d]pyrimidin-7(8H)-one] were 1.46 µM and 0.122 µM.
Consider `CC(C)n1c(=O)ccc2cnc(N[C@@H](C)c3ccc(C4(N5CCN(C(=O)CCl)CC5)CCOCC4)cc3)nc21` [cpd 22, 2-{[(1S)-1-(4-{4-[4-(chloroacetyl)piperazin-1-yl]tetrahydro-2H-pyran-4-yl}phenyl)ethyl]amino}-8-(propan-2-yl) pyrido[2,3-d]pyrimidin-7(8H)-one], for which the IC50 was 0.008 µM on IDH1^R132C and 0.121 µM in test [1].
Consider `C=CC(=O)N1CCN(C2(c3ccc(C4(Nc5ncc6ccc(=O)n(C(C)C)c6n5)CC4)cc3)CCOCC2)CC1` [cpd 30, 2-[(1-{4-[4-(4-acryloylpiperazin-1-yl)tetrahydro-2H-pyran-4-yl]phenyl}cyclopropyl)amino]-8-(propan-2-yl)pyrido[2,3-d]pyrimidin-7(8H)-one], for which the IC50 amounted to 0.048 µM at IDH1^R132C and 0.0075 µM in test [1].
Taken in the same sequence, the figures for `C=CC(=O)N1CCN(C2(c3ccc([C@H](C)Nc4nc(N)c5ccc(=O)n(C(C)C)c5n4)cc3)CCOCC2)CC1` [cpd 19, 2-{[(1S)-1-{4-[4-(4-acryloylpiperazin-1-yl)tetrahydro-2H-pyran-4-yl]phenyl}ethyl]amino}-4-amino-8-(propan-2-yl) pyrido[2,3-d]pyrimidin-7(8H)-one] were 0.0031 µM and 0.003 µM.
Taken in the same sequence, the figures for `[2H]C([2H])=C([2H])C(=O)N1CCN(C2(c3ccc([C@H](C)Nc4ncc5ccc(=O)n(C(C)C)c5n4)cc3)CCOCC2)CC1` [cpd 51, 8-(propan-2-yl)-2-({(1S)-1-[4-(4-{4-[(^2H3)prop-2-enoyl]piperazin-1-yl}tetrahydro-2H-pyran-4-yl)phenyl]ethyl}amino) pyrido[2,3-d]pyrimidin-7(8H)-one] were 0.007 µM and 0.0024 µM.
Regarding `C=CC(=O)N1CCN(C2(c3ccc(C(C)(C)Nc4ncc5ccc(=O)n(C(C)C)c5n4)cc3)CCOCC2)CC1` [cpd 40, 2-[(2-{4-[4-(4-acryloylpiperazin-1-yl)tetrahydro-2H-pyran-4-yl]phenyl}propan-2-yl)amino]-8-(propan-2-yl)pyrido[2,3-d]pyrimidin-7(8H)-one], the IC50 on IDH1^R132C was 0.018 µM; in test [1], 0.0148 µM.
Consider `C=CC(=O)N1CCN(C2(c3ccc([C@H](C)Nc4ncc5c(C)cc(=O)n(C6CCCC6)c5n4)cc3)CCOCC2)CC1` [cpd 15, 2-{[(1S)-1-{4-[4-(4-acryloylpiperazin-1-yl)tetrahydro-2H-pyran-4-yl]phenyl}ethyl]amino}-8-cyclopentyl-5-methylpyrido[2,3-d]pyrimidin-7(8H)-one], for which the figures for the IC50 (at IDH1^R132C; in test [1]) were 0.0247 µM and 0.009 µM, respectively.
Regarding `CC(C)n1c(=O)ccc2cnc(N[C@@H](C)c3ccc(C4(N5CCN(C(=O)C(O)CO)CC5)CCC(F)(F)CC4)cc3)cc21` (stereo partly drawn) [cpd 60, 7-{[(1S)-1-(4-{1-[4-(2,3-dihydroxypropanoyl)piperazin-1-yl]-4,4-difluorocyclohexyl}phenyl)ethyl]amino}-1-(propan-2-yl)-1,6-naphthyridin-2(1H)-one], the IC50 on IDH1^R132C was 0.071 µM.
Same read-out and setting: the result for `C=CC(=O)N1CCN(C2(c3ccc(CNc4ncc5ccc(=O)n(C(C)C)c5n4)cc3)CCOCC2)CC1` [cpd 31, 2-({4-[4-(4-acryloylpiperazin-1-yl)tetrahydro-2H-pyran-4-yl]benzyl}amino)-8-(propan-2-yl)pyrido[2,3-d]pyrimidin-7(8H)-one] reads 0.332 µM.
